According to patent publication US20250002453A1, “PHARMACEUTICALLY ACCEPTABLE SALT OF ELIGLUSTAT AND CRYSTAL FORM THEREOF” (SPEROGENIX (SHANGHAI) MEDTECH CO., LTD., priority 2021, published 2025):
“Also recorded” adds a separate entry of the source. Read-outs that look alike come from different tables or passages of the source.

Legend:
[1] = Dynamic solubility test (water, SGF, FaSSIF, FeSSIF; 37° C.; 1, 4 and 24 hours); assay type: physicochemical; details: for S: Solubility (free concentration) / pH (of filtrate) / FC: Crystalline form transformation: 37° C.; for FC: Crystalline form transformation: XRPD of residual solid
Description: 0.2 g sodium chloride and 0.1 g Triton X-100 are weighted into a 100 mL volumetric flask. Pure water is added for dissolution, stirred until the solid is completely dissolved, about 1.632 mL hydrochloric acid (1M) is added, and the pH is adjusted to 1.8 with 1M hydrochloric acid or 1M sodium hydroxide, and finally it is diluted to volume with pure water.
0.34 g sodium dihydrogen phosphate (NaH2PO4, anhydrous), 0.042 g sodium hydroxide, and 0.62 g sodium chloride are weighted respectively into a 100 mL volumetric flask, about 48 mL pure water is added for dissolution, the pH is adjusted to 6.5 with 1M hydrochloric acid or 1M sodium hydroxide, and finally it is diluted to volume with pure water to obtain a stock solution. A 50-mL volumetric flask is taken. 0.11 g of SIF powder is added, and dissolved with the above stock solution, then diluted to volume. The powder is completely dissolve by ultrasound.
(§1) The purity test, dynamic solubility and stability test in the experiment are completed by Agilent 1260 high performance liquid chromatography. The salt-forming molar ratio test of ions is completed by ion chromatography test.
The dynamic solubility of crystalline form B/crystalline form C of 1,5-naphthalene disulfonate, crystalline form A of oxalate, crystalline form A of tartrate and free crystalline form A in water and three biological solvents were evaluated.
After sampling at each time point, the samples were centrifugally filtered (0.45 μm PTFE filter head), the free salt concentration and pH value in the filtrate were measured, and the solid samples after centrifugation were tested for XRPD.

[2] = Evaluation of hygroscopicity by Dynamic Vapor Sorption (DVS); assay type: physicochemical; details: for Transformation of crystalline form: after DVS test
Description: Dynamic Vapor Sorption (DVS) profiles are collected on the DVS Intrinsic of SMS (Surface Measurement Systems). Relative humidity at 25° C. is corrected with the deliquescent points of LiCl, Mg(NO3)2 and KCl.
The hygroscopicity of crystalline form B/crystalline form C of 1,5-naphthalene disulfonate, crystalline form A of oxalate, crystalline form A of tartrate and free crystalline form A were evaluated by DVS.

[3] = Solid state stability assessment (XRPD and HPLC after exposure at 25° C./60% RH and 40° C./75% RH); assay type: physicochemical
Description: XRPD patterns are collected on an X-ray powder diffraction analyzer produced by PANalytacal, and Table 2 lists the XRPD parameters.
as §1
After leaving the crystalline form C of 1,5-naphthalene disulfonate in the exposure evaporation at 25° C./60% RH and 40° C./75% RH for 1 week, […] and 4 weeks. The physical and chemical stability of the sample was tested by XRPD and HPLC, and the stability data of crystalline form A of tartrate and free crystalline form A at 1 week, 2 weeks and 4 weeks were used as a reference. At the same time, the stability of crystalline form B of 1,5-naphthalene disulfonate and crystalline form A of oxalate was tested under the conditions of 25° C./60% RH and 40° C./75% RH for 1 week.

[4] = as described in WO2011066352A1; cited from earlier work
[5] = plasma concentration of eliglustat 500 ng/ml; cited from earlier work
[6] = left exposed for 4 weeks at 25° C./60% RH and 40° C./75% RH
[7] = 1 week of exposure at 25° C./60% RH and 40° C./75% RH

Row | Compound | S: Solubility (free concentration) ([1]; FaSSIF, 1 hr) | pH (of filtrate) ([1]; FaSSIF, 1 hr) | S: Solubility (free concentration) ([1]; FaSSIF, 4 hrs) | pH (of filtrate) ([1]; FaSSIF, 4 hrs) | S: Solubility (free concentration) ([1]; FaSSIF, 12 hrs) | pH (of filtrate) ([1]; FaSSIF, 12 hrs) | S: Solubility (free concentration) ([1]; H2O, 1 hr) | pH (of filtrate) ([1]; H2O, 1 hr) | FC: Crystalline form transformation ([1]; H2O, 1 hr) | S: Solubility (free concentration) ([1]; H2O, 4 hrs) | pH (of filtrate) ([1]; H2O, 4 hrs) | FC: Crystalline form transformation ([1]; H2O, 4 hrs) | S: Solubility (free concentration) ([1]; H2O, 12 hrs) | pH (of filtrate) ([1]; H2O, 12 hrs) | FC: Crystalline form transformation ([1]; H2O, 12 hrs) | S: Solubility (free concentration) ([1]; SGF, 1 hr) | pH (of filtrate) ([1]; SGF, 1 hr) | S: Solubility (free concentration) ([1]; SGF, 4 hrs) | pH (of filtrate) ([1]; SGF, 4 hrs) | S: Solubility (free concentration) ([1]; SGF, 12 hrs) | further results
1 | CCCCCCCC(=O)N[C@H](CN1CCCC1)[C@H](O)c1ccc2c(c1)OCCO2 [Free crystalline form A, reference compound] | 4400 µg/mL | 7.31 | 4400 µg/mL | 7.29 | 4200 µg/mL | 7.30 | 120 µg/mL | 9.24 | No | 130 µg/mL | 9.03 | No | 170 µg/mL | 8.80 | No | 6600 µg/mL | 7.27 | 6700 µg/mL | 7.26 | 6500 µg/mL | FC: Crystalline form transformation ([1]; FaSSIF, 1 hr): No; FC: Crystalline form transformation ([1]; FaSSIF, 4 hrs): No; FC: Crystalline form transformation ([1]; FaSSIF, 12 hrs): No; FC: Crystalline form transformation ([1]; SGF, 1 hr): No; FC: Crystalline form transformation ([1]; SGF, 4 hrs): No; pH (of filtrate) ([1]; SGF, 12 hrs): 7.30; FC: Crystalline form transformation ([1]; SGF, 12 hrs): No; hygroscopicity (in words) ([2]; DVS): almost no hygroscopicity; Hygroscopic weight gain at 25° C./80% RH ([2]; DVS): 0.01%; Transformation of crystalline form [2]: did not change in crystalline form; also recorded: No change; change in crystalline form (XRPD) [3, 6]: no change in crystalline form; decrease in HPLC purity [3, 6]: no change in crystalline form or decrease in HPLC purity was observed
2 | CCCCCCCC(=O)N[C@H](CN1CCCC1)[C@H](O)c1ccc2c(c1)OCCO2.CCCCCCCC(=O)N[C@H](CN1CCCC1)[C@H](O)c1ccc2c(c1)OCCO2.O.O.O=S(=O)(O)c1cccc2c(S(=O)(=O)O)cccc12 | 2900 µg/mL | 6.48 | 2800 µg/mL | 6.48 | 3000 µg/mL | 6.49 | 2000 µg/mL | 7.39 | No | 1900 µg/mL | 7.33 | No | 2000 µg/mL | 7.45 | No | 2600 µg/mL | 1.80 | 2400 µg/mL | 1.88 | 2600 µg/mL | FC: Crystalline form transformation ([1]; FaSSIF, 1 hr): No; FC: Crystalline form transformation ([1]; FaSSIF, 4 hrs): No; FC: Crystalline form transformation ([1]; FaSSIF, 12 hrs): No; FC: Crystalline form transformation ([1]; SGF, 1 hr): No; FC: Crystalline form transformation ([1]; SGF, 4 hrs): No; pH (of filtrate) ([1]; SGF, 12 hrs): 1.89; FC: Crystalline form transformation ([1]; SGF, 12 hrs): No; Hygroscopic weight gain at 25° C./80% RH ([2]; DVS): 0.33%; hygroscopic weight gain at 25° C./80% RH ([2]; DVS): 0.33 wt %; Transformation of crystalline form [2]: No change; Transformation of crystalline form ([2]; listed as crystalline form C of 1,5-naphthalene disulfonate): no change in crystalline form; change in crystalline form (XRPD) [3, 6]: no change in crystalline form; decrease in HPLC purity [3, 6]: no change in crystalline form or decrease in HPLC purity was observed
3 | CCCCCCCC(=O)N[C@H](CN1CCCC1)[C@H](O)c1ccc2c(c1)OCCO2.Cl [hydrochloride salt] |  |  |  |  |  |  |  |  |  |  |  |  |  |  |  |  |  |  |  |  | hygroscopicity (in words) [4]: too hygroscopic for formulation
4 | CCCCCCCC(=O)N[C@H](CN1CCCC1)[C@H](O)c1ccc2c(c1)OCCO2.O=S(=O)(O)c1cccc2c(S(=O)(=O)O)cccc12 [Eliglustat 1,5-naphthalene disulfonate] |  |  |  |  |  |  |  |  |  |  |  |  |  |  |  |  |  |  |  |  | solubility difference in water and simulated gastric fluid ([1]; water versus SGF, in words): small; hygroscopicity compared with eliglustat hemitartrate crystalline form A ([2]; comparison in words): lower hygroscopicity over eliglustat hemitartrate crystalline form A
5 | CCCCCCCC(=O)N[C@H](CN1CCCC1)[C@H](O)c1ccc2c(c1)OCCO2 [eliglustat] |  |  |  |  |  |  |  |  |  |  |  |  |  |  |  |  |  |  |  |  | predicted mean increase in PR interval [5]: 22 (26) milliseconds; predicted mean increase in QRS interval [5]: 7 (10) milliseconds; predicted mean increase in QTcF interval [5]: 13 (19) milliseconds
6 | CCCCCCCC(=O)NC(CN1CCCC1)C(O)c1ccc2c(c1)OCCO2.O=C(O)C(O)C(O)C(=O)O (stereo not drawn) [1:1 tartrate salt] |  |  |  |  |  |  |  |  |  |  |  |  |  |  |  |  |  |  |  |  | hygroscopicity (in words) [4]: too hygroscopic for formulation
7 | CCCCCCCC(=O)N[C@H](CN1CCCC1)[C@H](O)c1ccc2c(c1)OCCO2.CCCCCCCC(=O)N[C@H](CN1CCCC1)[C@H](O)c1ccc2c(c1)OCCO2.O=S(=O)(O)c1cccc2c(S(=O)(=O)O)cccc12 | 2700 µg/mL | 6.52 | 2700 µg/mL | 6.51 | 2600 µg/mL | 6.52 | 1900 µg/mL | 7.67 | Yes | 2000 µg/mL | 7.67 | Yes | 2000 µg/mL | 7.75 | Yes | 2700 µg/mL | 1.84 | 2500 µg/mL | 1.75 | 2300 µg/mL | FC: Crystalline form transformation ([1]; FaSSIF, 1 hr): Yes; FC: Crystalline form transformation ([1]; FaSSIF, 4 hrs): Yes; FC: Crystalline form transformation ([1]; FaSSIF, 12 hrs): Yes; FC: Crystalline form transformation ([1]; SGF, 1 hr): Yes; FC: Crystalline form transformation ([1]; SGF, 4 hrs): Yes; pH (of filtrate) ([1]; SGF, 12 hrs): 1.77; FC: Crystalline form transformation ([1]; SGF, 12 hrs): Yes; Hygroscopic weight gain at 25° C./80% RH ([2]; DVS): 0.59%; Transformation of crystalline form [2]: Change to crystalline; Transformation of crystalline form ([2]; listed as crystalline form B of 1,5-naphthalene disulfonate): changed to crystalline form C; hygroscopic weight gain (in words) ([2]; humidity higher than 80% RH at 25° C.): significant hygroscopic weight gain; decrease in HPLC purity [3, 7]: no decrease in HPLC purity was observed; change in crystalline form (XRPD) ([3]; left exposed for a week at 40° C./75% RH): partially transformed into the crystalline form C
8 | CCCCCCCC(=O)N[C@H](CN1CCCC1)[C@H](O)c1ccc2c(c1)OCCO2.CCCCCCCC(=O)N[C@H](CN1CCCC1)[C@H](O)c1ccc2c(c1)OCCO2.O=C(O)C(=O)O [Crystalline form A of oxalate] | ≥8100 µg/mL | 6.52 | ≥8200 µg/mL | 6.48 | ≥8100 µg/mL | 6.47 | 6800 µg/mL | 7.07 | No | 7800 µg/mL | 7.51 | No | 8000 µg/mL | 7.30 | No | ≥8400 µg/mL | 2.19 | ≥8500 µg/mL | 2.17 | ≥8200 µg/mL | pH (of filtrate) ([1]; SGF, 12 hrs): 2.05; Hygroscopic weight gain at 25° C./80% RH ([2]; DVS): 7.64%; hygroscopic weight gain at 25° C./80% RH ([2]; DVS): 7.64 wt %; Transformation of crystalline form [2]: No change; Transformation of crystalline form ([2]; listed as crystalline form A of oxalate): no change in crystalline form; weight loss (in words) ([2]; humidity lower than 10% RH): Significant weight loss; decrease in HPLC purity [3, 7]: no decrease in HPLC purity was observed
